Results on one compound are retold here after patent US20250127696A1, “COMPOSITION FOR PREVENTING OR IMPROVING SKIN-AGING CONTAINING A THYMOL ESTER-BASED COMPOUND” (AMOREPACIFIC CORPORATION, priority 2023, published 2025).

Common to all, as to assay type: cell-based, human
Experiment [1] has as its system β-galactosidase in melanocytes. Briefly: beta-galactosidase assay (senescence staining) after UVB. To be noted: UVB 5 mJ/cm^2 twice at 24-hour intervals, then treated and incubated 2 weeks; vs UVB only; FIG. 4. How it is done:
(§1) Melanocytes were purchased from Cascade Biologics as cells cultured in the foreskin of newborn African-American males, and cultured using Medium254 medium mixed with human melanocyte growth supplement (Life technologies).
Melanocytes were irradiated with 5 mJ/cm^2 of UVB twice at 24-hour intervals using a 1 UVB UV irradiator (Bio-Sun), and then treated with Melasolv and incubated for 2 weeks. To measure the degree of cellular senescence, a beta-galactosidase assay was performed using a beta-gal staining kit from Life technologies. A photograph was taken using an optical microscope (ECLIPSE TS100 from NIKON), and then the number of cells with stained beta-galactosidase was counted.

For experiment [2], the system named is melanocytes. Briefly: Observation of cell morphology after UVB-induced senescence. The settings on record: UVB 5 mJ/cm^2 twice at 24-hour intervals, then treated and incubated 2 weeks; FIG. 3. How it is done: as §1
Melanocytes were irradiated with 5 mJ/cm^2 of UVB twice at 24-hour intervals using a 1 UVB UV irradiator (Bio-Sun), and then treated with Melasolv and incubated for 2 weeks. A photograph of the cells is taken using an optical microscope (ECLIPSE TS100 from NIKON), and the shape of the cells is examined. Referring to FIG. 3, when treated with ultraviolet (UVB) that induce cellular senescence (Chr UVB; Chronic UVB in FIG. 3), it could be confirmed that the skin cells were flattened or enlarged, as shown by three spots that were slightly larger than the others in the middle of the photograph.

Experiment [3] has as its system melanocytes. Briefly: Predicted transcriptome age (RNA-age) of melanocytes. To be noted: 10 ppm, 24 hours, vs untreated control; RNAAgeCalc on FPKM data, skin tissue; FIG. 2. How it is done: as §1
RNA was extracted from melanocytes treated with 10 ppm of Melasolv for 24 hours using TRIzol reagent (Life technologies). This RNA was used to prepare a library using the Illumina TruSeq Stranded Total RNA Library Prep kit (Illumina, San Diego, CA, USA), and then RNA-sequencing was performed using the NovaSeq 6000 platform (Illumina).
Thereafter, a model for predicting age based on approximately 16,000 gene expression values of RNA-seq data was applied to measure the RNA-age of the untreated control melanocytes (—in the graph of FIG. 2) and the RNA-age of the melanocytes treated with Melasolv. Specifically, the RNA-age used RNAAgeCalc package, which can calculate transcriptome age from RNAseq data. Among the transcriptome data, FPKM data was entered as input and skin tissue was entered as an argument for calculation. • (RNAAgeCalc pakage: https://bioconductor.org/packages/release/bioc/html/RNAAgeCalc.html, • Ren X, Kuan P F (2020). “A multi-tissue transcriptional age calculators.” PLOS ONE, 15(8),-20. doi: 10.1371/journal.pone.0237006)

As for `COc1cc(/C=C/C(=O)Oc2cc(C)ccc2C(C)C)cc(OC)c1OC` [Melasolv, (5-methyl-2-propan-2-ylphenyl) (E)-3-(3,4,5-trimethoxyphenyl) prop-2-enoate], the “β-galactosidase (number of stained cells)” value in experiment [1] is “reduced to a statistically significant degree”. Moreover, the “change in cell morphology (flattened or enlarged cells)” value in experiment [2] is given as “reduces changes in skin cells caused by UVB”. In addition, in experiment [3], the “decrease of RNA-age of melanocytes” value was “about 4 years”.
